Assays:
[1] = test system: human RPMI8226 multiple myeloma; assay: Human RPMI8226 multiple myeloma xenograft in female nude mice (TMU-RPMI8226-e0001); format: in vivo
From the text: The 42-day study utilized five groups of mice (n=6) bearing established human PRMI8226 multiple myeloma with mean volumes of ˜85 mm^3 on D1. […] (FIG. 3).

HL-60 = assay: Growth inhibition assay; format: cell-based; details: Homo sapiens; HL-60 (Leukemia), 48 hours
Description: (§1) Cells were seeded in 96-well plastic plates and exposed to MPT0L056 for 48 hours. Cell viability was assessed using the 3-(4,5-dimethylthiazol-2-yl)-2,5-diphenyltetrazolium bromide assay. Growth inhibition was expressed as the percentage of surviving cells in drug-treated versus DMSO-treated control cells.
(§2) The compounds of the invention were subjected to growth inhibition assay.

HCT-116 = assay: Growth inhibition assay; format: cell-based; details: Homo sapiens; HCT-116 (Colorectal cancer), 48 hours; read-out: GI50
Description: as §1, §2

Hep 3B = assay: Growth inhibition assay; format: cell-based; details: Homo sapiens, Hep3B; Hep 3B (Liver cancer), 48 hours; read-out: GI50
Description: as §1, §2

MDA-MB-231 = assay: Growth inhibition assay; format: cell-based; details: Homo sapiens; MDA-MB-231 (Breast cancer), 48 hours; read-out: GI50
Description: as §1, §2

ITCH = ITCH (Homo sapiens, UniProt Q96J02); assay: Blocking of ITCH self-ubiquitination, in vivo assay; format: cell-based; details: concentration of 0.5 um and 5 um, FIG. 2
From the text: MPT0L056 of the invention was used to test the blocking of ITCH self-ubiquitination. […] [Reference for in vitro assay: Scialpi F, Malatesta M, Peschiaroli A, Rossi M, Melino G, and Bernassola F. Itch self-polyubiquitylation occurs through lysine-63 linkages. Biochem Pharmacol. 2008 Dec. 1; 76(11):1515-21. Reference for in vivo assay: Chang L, Kamata H, Solinas G, Luo J L, Maeda S, Venuprasad K, Liu Y C, and Karin M. The E3 ubiquitin ligase itch couples JNK activation to TNFalpha-induced cell death by inducing c-FLIP(L) turnover. Cell. 2006 Feb. 10; 124(3):601-131

[2] = test system: adjuvant-induced arthritis (AIA); assay: Adjuvant-induced arthritis (AIA) model; format: in vivo, Lewis rats
Description: In vivo adjuvant-induced arthritis (AIA) model. Five-week-old male Lewis rats were obtained from the National Laboratory Animal Center (Taipei, Taiwan). Complete Freund's adjuvant (CFA) was prepared by suspending heat-killed Mycobacterium butyricum (Difco) in mineral oil at 3 mg/mL. CFA-induced arthritis was induced by intradermal injection of 100 μL, of the CFA emulsion into the base of the right hind paw on day 0. […] On days 0, 2, 6, 9, 13, 17, and 21, the animals were weighed and both hind paw volumes measured using a digital plethysmometer (Diagnostic & Research Instruments Co. Ltd, Taipei, Taiwan). On day 21, micro-computed tomography (micro-CT) of the paws was performed by the Core Facilities Center of the National Research Program for Biopharmaceuticals using an in vivo micro-CT scanner (Skyscan 1176, Bruker Corp., Kontich, Belgium) at 18 μm resolution and 180° scanning with a rotation step of 0.8o per image, 300 msec integration time, 70 keV photon energy, and 350 μA current.
Quantification of volumetric bone mineral density (BMD) and bone volume (BV) was performed in a defined bone area ranging 12 mm from tarsals to the end of the calcaneus. The bone mineral content (BMC) was described by the product of BV and BMD.

[3] = MPT0L056 25 mg/kg p.o. once every day for 42 days
[4] = MPT0L056 50 mg/kg p.o. once every day for 42 days

Chain of ITCH (Q96J02 whole entry, species assumed): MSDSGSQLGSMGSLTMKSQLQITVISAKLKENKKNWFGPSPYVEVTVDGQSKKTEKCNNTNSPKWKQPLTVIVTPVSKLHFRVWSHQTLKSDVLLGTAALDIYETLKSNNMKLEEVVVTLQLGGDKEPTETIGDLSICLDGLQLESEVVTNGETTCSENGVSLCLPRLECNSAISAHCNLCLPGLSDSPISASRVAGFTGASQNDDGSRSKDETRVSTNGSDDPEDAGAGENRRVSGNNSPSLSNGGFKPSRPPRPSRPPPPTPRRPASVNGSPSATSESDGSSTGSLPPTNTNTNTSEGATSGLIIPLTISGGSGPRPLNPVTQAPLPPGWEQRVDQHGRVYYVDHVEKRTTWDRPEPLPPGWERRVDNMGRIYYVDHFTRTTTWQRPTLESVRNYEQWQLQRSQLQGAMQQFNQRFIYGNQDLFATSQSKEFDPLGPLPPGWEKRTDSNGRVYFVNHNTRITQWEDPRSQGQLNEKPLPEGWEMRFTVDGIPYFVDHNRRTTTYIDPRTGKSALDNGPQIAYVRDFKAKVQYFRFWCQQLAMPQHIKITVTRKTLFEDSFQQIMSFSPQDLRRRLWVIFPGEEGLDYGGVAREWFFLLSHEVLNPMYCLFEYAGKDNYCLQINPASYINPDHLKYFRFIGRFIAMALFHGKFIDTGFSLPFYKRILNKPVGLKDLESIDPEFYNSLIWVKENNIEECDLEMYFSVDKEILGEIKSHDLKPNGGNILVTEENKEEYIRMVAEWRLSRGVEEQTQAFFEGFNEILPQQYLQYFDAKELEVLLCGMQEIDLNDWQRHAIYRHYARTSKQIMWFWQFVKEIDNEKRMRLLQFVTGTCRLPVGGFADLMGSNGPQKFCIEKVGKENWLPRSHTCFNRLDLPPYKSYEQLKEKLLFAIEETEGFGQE

Question: How did the antitumor activity [1, 3] turn out when `O=C(Nc1ccncc1)c1ccc(CNC2=C(Cl)C(=O)c3ccccc3C2=O)cc1` [MPT0L056] was run?
Answer: produced significant antitumor activity

Question: And the “mice with complete regression (CR)” value [1, 3]?
Answer: Two of six

Question: And the antitumor activity [1, 4]?
Answer: produced significant antitumor activity

Question: And the “mice with complete regression (CR)” value [1, 4]?
Answer: Two of six

Question: And the body weight change ([1]; MPT0L056 50 and 25 mg/kg, all doses tested, FIG. 4)?
Answer: without significantly body weight loss

Question: And the GI50 (HL-60)?
Answer: 1.6 µM

Question: What about the GI50 (HCT-116) of the same compound?
Answer: 4.3 µM

Question: And the GI50 (Hep 3B)?
Answer: 1.4 µM

Question: And the GI50 (MDA-MB-231)?
Answer: 2.9 µM

Question: And the “blocking of ITCH's in vivo self-ubiquitination” value (ITCH)?
Answer: blocks ITCH's in vivo self-ubiquitination

Question: What about the “bone mineral content (BMC) loss” value ([2]; AIA model, FIG. 17) of the same compound?
Answer: can prevent

Question: What about the “bone mineral density (BMD) loss” value ([2]; AIA model, FIG. 17) of the same compound?
Answer: can prevent

Question: And the “development of arthritis (micro-CT)” value ([2]; MPT0L056 25 mg/kg, po, qd, day 2 to day 21, FIG. 15)?
Answer: inhibits development of arthritis

Question: What about the paw swelling ([2]; MPT0L056 25 mg/kg, po, qd, day 2 to day 21, FIG. 16) of the same compound?
Answer: significantly reduces paw swelling
